Like-named read-outs stand apart in the source and are kept apart here.
Legend:
Staphylococcus aureus = test: agar-dilution MIC; type: cell-based
Bacteroides fragilis = test: agar-dilution MIC; type: cell-based
Text: (§1) The agar-dilution procedure described by the International Collaborative study (ICS) group was used to determine the minimum inhibitory concentrations (MIC's).

[1] = tested on: Staphylococcus epidermidis; test: agar-dilution MIC; type: cell-based
Text: as §1

Streptococcus pneumoniae = test: agar-dilution MIC; type: cell-based
Text: as §1

Streptococcus pyogenes = test: agar-dilution MIC; type: cell-based; conditions: Streptococcus pyogenes C203; Table 17
Text: as §1

[2] = tested on: Streptococcus sp. (Group D); test: agar-dilution MIC; type: cell-based
Text: as §1

Bacteroides corrodens = test: agar-dilution MIC; type: cell-based; conditions: B. corrodens 1874; 24-hour; Table 12
Text: (§2) The A41030 antibiotics, factors A, B, and C, are active against a genus of anaerobic bacteria identified as Bacteroides sp., the 24-hour MIC values being determined by the agar-dilution method, and are set forth in Table 12, which follows.

Bacteroides vulgatis [3] = test: agar-dilution MIC; type: cell-based; conditions: B. vulgatis 1563; 24-hour; Table 12
Text: as §2

Propionibacterium acnes = test: agar-dilution MIC; type: cell-based
Text: Antibiotic A41030 factors A, B and C have also been tested and found to be active against a genus of anaerobic bacteria identified as Propionibacterium acnes.

Clostridium difficile = type: cell-based
Clostridium perfringens = type: cell-based; conditions: Clostridium perfringens 81; Table 14
Clostridium septicum = test: agar-dilution MIC; type: cell-based; conditions: Clostridium septicum 1128; Table 14
[4] = tested on: Peptococcus asaccharolyticus; test: agar-dilution MIC; type: cell-based
Experimental: (§3) The MIC values were determined by the agar-dilution method, and are recorded in Table 15, which follows.

Peptococcus constellatus = test: agar-dilution MIC; type: cell-based; conditions: Pc. constellatus 1468; Table 15
Experimental: as §3

Peptococcus magnus = test: agar-dilution MIC; type: cell-based; conditions: Pc. magnus 1477; Table 15
Experimental: as §3

Peptococcus prevoti [5] = test: agar-dilution MIC; type: cell-based; conditions: Table 15
Experimental: as §3

[6] = tested on: Peptostreptococcus anaerobius; test: agar-dilution MIC; type: cell-based
[7] = tested on: Bacteroides melaninogenicus; test: agar-dilution MIC; type: cell-based; conditions: Bacteroides melaninogenicus 2736; Table 14
Fusobacterium symbiosum = test: agar-dilution MIC; type: cell-based; conditions: Fusobacterium symbiosum 1470; Table 14
S. pyogenes = test: experimental bacterial infection in mice; type: in vivo
Bacteroides vulgatis [8] = test: agar-dilution MIC; type: cell-based; conditions: Bacteroides vulgatis 1211; Table 14
Peptococcus prevoti [9] = test: agar-dilution MIC; type: cell-based

N[C@H]1C(=O)N[C@@H]2Cc3ccc(c(Cl)c3)Oc3cc4cc(c3O)Oc3ccc(cc3Cl)[C@@H](O)[C@@H]3NC(=O)C(NC(=O)[C@@H]4NC(=O)[C@@H](NC2=O)c2cc(O)cc(c2)Oc2cc1ccc2O)c1ccc(O)c(c1)-c1c(O)cc(O)cc1[C@@H](C(=O)O)NC3=O [A41030 factor B]
0.06 µg/mL: MIC (Staphylococcus aureus; Staphylococcus aureus 3055, end point after 24 hours, Table 18) | MIC (Staphylococcus aureus; Staphylococcus aureus V138, end point after 24 hours, Table 18) | MIC ([1]; Staphylococcus epidermidis 270, end point after 24 hours, Table 18) | MIC (Propionibacterium acnes; P. acnes 44, 24-hour, Table 13) | MIC (Propionibacterium acnes; P. acnes 79, 24-hour, Table 13) | MIC (Propionibacterium acnes; P. acnes 101, 24-hour, Table 13) | MIC (Propionibacterium acnes; P. acnes 103, 24-hour, Table 13) | MIC (Propionibacterium acnes; P. acnes 105, 24-hour, Table 13) | MIC (Propionibacterium acnes; P. acnes 106, 24-hour, Table 13) | MIC (Propionibacterium acnes; P. acnes 107, 24-hour, Table 13) | MIC (Propionibacterium acnes; P. acnes 5176, 24-hour, Table 13) | MIC (Propionibacterium acnes; P. acnes 5187, 24-hour, Table 13) | MIC (Propionibacterium acnes; P. acnes 5191, 24-hour, Table 13) | MIC (Propionibacterium acnes; P. acnes 5197, 24-hour, Table 13) | MIC (Propionibacterium acnes; P. acnes 5227, 24-hour, Table 13) | MIC (Propionibacterium acnes; P. acnes 5292, 24-hour, Table 13) | MIC ([6]; Ps. anaerobius 1418, Table 15)
32 µg/mL: MIC (Bacteroides fragilis; B. fragilis 2, 24-hour, Table 12) | MIC (Bacteroides fragilis; B. fragilis 9, 24-hour, Table 12) | MIC (Bacteroides fragilis; B. fragilis 103, 24-hour, Table 12) | MIC (Bacteroides fragilis; B. fragilis 104, 24-hour, Table 12) | MIC (Bacteroides fragilis; B. fragilis 106, 24-hour, Table 12) | MIC (Bacteroides fragilis; B. fragilis 107, 24-hour, Table 12) | MIC (Bacteroides fragilis; B. fragilis 108, 24-hour, Table 12) | MIC (Bacteroides fragilis; B. fragilis 111, 24-hour, Table 12) | MIC (Bacteroides fragilis; B. fragilis 112, 24-hour, Table 12) | MIC (Bacteroides fragilis; B. fragilis 113, 24-hour, Table 12) | MIC (Bacteroides fragilis; B. fragilis 1877, 24-hour, Table 12) | MIC (Bacteroides fragilis; B. fragilis 9032, 24-hour, Table 12) | MIC (Bacteroides fragilis; Bacteroides fragilis 1877, Table 14) | MIC (Bacteroides fragilis; Bacteroides fragilis 1936B, Table 14) | MIC (Bacteroides corrodens) | MIC (Bacteroides vulgatis [3]) | MIC (Clostridium difficile; Clostridium difficile 2994, Table 14) | MIC (Bacteroides vulgatis [8])
1.0 µg/mL: MIC (Clostridium difficile; Clostridium difficile 111F, Table 16) | MIC (Clostridium difficile; Clostridium difficile 1153, Table 16) | MIC (Clostridium difficile; Clostridium difficile 2634, Table 16) | MIC (Clostridium difficile; Clostridium difficile 3424-5B, Table 16) | MIC (Clostridium difficile; Clostridium difficile 3816, Table 16) | MIC (Clostridium difficile; Clostridium difficile 3950D, Table 16) | MIC (Clostridium difficile; Clostridium difficile 6890, Table 16) | MIC (Clostridium difficile; Clostridium difficile 8484, Table 16) | MIC (Clostridium difficile; Clostridium difficile A-194, Table 16) | MIC (Clostridium difficile; Clostridium difficile A-195, Table 16) | MIC (Clostridium difficile; Clostridium difficile A-196, Table 16) | MIC (Clostridium difficile; Clostridium difficile A-279, Table 16) | MIC (Clostridium difficile; Clostridium difficile A-281, Table 16) | MIC (Clostridium difficile; Clostridium difficile WAL-2112, Table 16) | MIC (Clostridium difficile; Clostridium difficile WAL-3657, Table 16) | MIC (Fusobacterium symbiosum)
0.25 µg/mL: MIC (Streptococcus pyogenes) | MIC ([2]; Streptococcus sp. Group D 8043, end point after 24 hours, Table 18) | MIC ([2]; Streptococcus sp. Group D Mx161, end point after 24 hours, Table 18) | MIC ([2]; Streptococcus sp. Group D X66, end point after 24 hours, Table 18) | MIC (Propionibacterium acnes; P. acnes 104, 24-hour, Table 13) | MIC (Propionibacterium acnes; P. acnes 5229, 24-hour, Table 13) | MIC (Peptococcus magnus) | MIC (Peptococcus prevoti [5]; Pc. prevoti 1293) | MIC ([6]; Ps. anaerobius 8, Table 15) | MIC ([6]; Ps. anaerobius 59, Table 15) | MIC ([6]; Ps. anaerobius 1428, Table 15) | MIC ([6]; Ps. anaerobius 1451, Table 15)
1 µg/mL: MIC ([2]; Streptococcus sp. Group D 9901, end point after 24 hours, Table 18) | MIC ([2]; Streptococcus sp. Group D 9960, Table 17) | MIC ([2]; Streptococcus sp. Group D X66, Table 17)
0.03 µg/mL: MIC ([1]; Staphylococcus epidermidis 219, end point after 24 hours, Table 18) | MIC ([1]; Staphylococcus epidermidis 269, end point after 24 hours, Table 18) | MIC ([1]; Staphylococcus epidermidis 285, end point after 24 hours, Table 18)
1.4 mg/kg: ED50 (S. pyogenes; S. pyogenes infection in mice, two doses subcutaneously)
≤ 0.03 µg/mL: MIC (Propionibacterium acnes; P. acnes 5170, 24-hour, Table 13)
4 µg/mL: MIC (Clostridium septicum) | MIC [7]
64 µg/mL: MIC (Bacteroides fragilis; B. fragilis 110, 24-hour, Table 12) | MIC (Bacteroides fragilis; B. fragilis 1451, 24-hour, Table 12) | MIC (Bacteroides fragilis; B. fragilis 1470, 24-hour, Table 12) | MIC (Bacteroides fragilis; Bacteroides fragilis 111, Table 14)
0.25: MIC (Staphylococcus aureus; in µg/mL)
16 µg/mL: MIC (Propionibacterium acnes; Propionibacterium acnes 79, Table 14)
≤ 0.25 µg/mL: MIC ([4]; Peptococcus asaccharolyticus 1302, Table 14) | MIC ([6]; Peptostreptococcus anaerobius 1428, Table 14) | MIC (Peptococcus prevoti [9]; Peptococcus prevoti 1281, Table 14)
0.5 µg/mL: MIC ([1]; Staphylococcus epidermidis EPI2, Table 17) | MIC (Streptococcus pneumoniae; Streptococcus pneumoniae B1-438, end point after 24 hours, Table 18) | MIC (Streptococcus pneumoniae; Streptococcus pneumoniae Park I, Table 17) | MIC ([2]; Streptococcus sp. Group D 2041, end point after 24 hours, Table 18) | MIC ([2]; Streptococcus sp. Group D 2058, end point after 24 hours, Table 18) | MIC ([2]; Streptococcus sp. Group D 9960, end point after 24 hours, Table 18) | MIC ([2]; Streptococcus sp. Group D 12253F, end point after 24 hours, Table 18) | MIC (Propionibacterium acnes; P. acnes 5226, 24-hour, Table 13) | MIC (Propionibacterium acnes; P. acnes 5228, 24-hour, Table 13) | MIC (Clostridium difficile; Clostridium difficile 78, Table 16) | MIC (Clostridium difficile; Clostridium difficile 107B, Table 16) | MIC (Clostridium difficile; Clostridium difficile A-280, Table 16) | MIC (Clostridium difficile; Clostridium difficile WAL-4268, Table 16) | MIC (Clostridium perfringens) | MIC ([4]; Pc. asaccharolyticus 1344, Table 15) | MIC (Peptococcus constellatus) | MIC (Peptococcus prevoti [5]; Pc. prevoti 1407) | MIC ([6]; Ps. anaerobius 52, Table 15) | MIC (Peptococcus prevoti [9]; Pc. prevoti 1281, Table 15)
> 300 mg./kg. X 2: in vivo oral activity (S. pyogenes; against S. pyogenes in mice, oral)
